# Experimental data: paper PMC2802518 (Biochemistry, 2009)
# pIC50: −log10 of the molar value.
# Molecular target: T1, tCD14-His6 (truncated CD14) (Homo sapiens, UniProt P08571)
# T1 sequence (P08571 20-175 limits assumed): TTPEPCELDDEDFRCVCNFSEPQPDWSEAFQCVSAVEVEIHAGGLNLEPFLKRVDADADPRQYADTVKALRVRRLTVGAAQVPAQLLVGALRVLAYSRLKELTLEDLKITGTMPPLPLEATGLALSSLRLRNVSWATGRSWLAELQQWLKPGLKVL
# Assay type: binding
row,pIC50,SMILES
1,6.10,"CCCCCCCCCCCCCCO[C@H]1[C@@H](OC)O[C@H](C[N+](C)(C)C2CCCC2)[C@@H](O)[C@@H]1OCCCCCCCCCCCCCC [compound 1, methyl 6-deoxy-6-N-dimethyl-N-cyclopentylamonium-2,3-di-O-tetradecyl-α-D-glucopyranoside]"
2,5.70,"CCCCCCCCCCCCCCO[C@H]1[C@@H](OC)O[C@H](CN)[C@@H](O)[C@@H]1OCCCCCCCCCCCCCC [compound 2, methyl 6-deoxy-6-amino-2,3-di-O-tetradecyl-α-D-glucopyranoside]"
3,6.40,"CCCCCCCCCCCCCCOc1ccc(C[N+](C)(C)C2CCCC2)cc1OCCCCCCCCCCCCCC [compound 3, N-(3,4-bis-tetradecyloxy-benzyl)-N-cyclopentyl-N,N-dimethylammonium]"
